Where two headings read alike, the source gives them in different places.
Legend:
[1] = test system: Human mammary cancer MCF-7 cells; experiment: Cytotoxicity in MCF-7 cells (72 h treatment, Hoechst 33342 staining, IN Cell Analyzer imaging); format: cell-based
Experimental: (§1) Human mammary cancer MCF-7 cells were maintained under standard conditions using Dulbecco's Modified Eagle Medium Nutrient Mixture F12 (DMEM-F12, GIBCO #12400-024) accompanied by 10% fetal calf serum (FCS, Atlanta Biologicals #S 11550). Cells were cultured to 80% confluency before being lifted with 0.05% Trypsin/EDTA (GIBCO #1404912) for 2 minutes, spun and resuspended in new media.
(§2) MCF7 cells were seeded at a density of 10,000 cells per well in 96 well plates (BD Falcon #353220). Cells were grown for 24 h, washed in phosphate-buffered saline (PBS, Life Technologies #14080-055), media was then replaced with DMEM-F12 at 5% FCS. At this time Ellipticine, including Aza-Ellipticine compounds, were added from a treatment plate (3 μL per condition) for a total volume of 150 μL (final concentrations of 0.1, 1, 3, 10 μM) and were incubated under standard conditions for an additional 72 h.
(§3) After 72 h of treatment with drugs, cells were fixed by adding 50 μL of 10% Buffered Formalin Phosphate and stained with 2 μM Hoechst 33342 (AnaSpec #83218) stock (20000×) to media for 1 h. Images were then captured with the IN Cell Analyzer 2000 (GE Healthcare UK Ltd., Buckinghamshire, UK).

[2] = Ramkumar and Nagarajan, 2014; cited from earlier work
[3] = Cytotoxicity in MCF-7 cells (72 h treatment, Hoechst 33342 staining, IN Cell Analyzer imaging); format: cell-based, Human; settings: human
Experimental: as §1, §2, §3

| Compound | EC50 at 72 h [3] | further results |
| --- | --- | --- |
| Cc1c2ccncc2c(C)c2c1[nH]c1ccc(O)cc12 [9-Hydroxy ellipticine, reference compound] | – | EC50 ([1]; MCF-7 cells, 72 h treatment, 5% FCS, concentrations 0.1, 1, 3, 10 μM): 900 nM; potency compared with parent ellipticine [2]: forty times more potent than its parent |
| c1ccc2c(c1)[nH]c1nc3cnccc3cc12 [Example 2, 10H-indolo[2,3-b][1,7]naphthyridine] | 6000 nM | – |
| COc1ccc2[nH]c3nc4cccnc4c(C)c3c2c1 [Example 7, 9-methoxy-11-methyl-6H-indolo[2,3-b][1,5]naphthyridine] | 14000 nM | – |
| CCCn1c2ccc(OC)cc2c2cc3ncccc3nc21 [Example 8, 9-methoxy-6-propyl-6H-indolo[2,3-b][1,5]naphthyridine] | 13300 nM | – |
| COc1ccc2[nH]c3nc4cccnc4cc3c2c1 [Example 12, 9-methoxy-6H-indolo[2,3-b][1,5]naphthyridine] | 800 nM | – |
| COc1ccc2[nH]c3nc4cnccc4cc3c2c1 [Example 13, 7-methoxy-10H-indolo[2,3-b][1,7]naphthyridine] | 17000 nM | – |
| Oc1ccc2[nH]c3nc4cccnc4cc3c2c1 [Example 14, 6H-indolo[2,3-b][1,5]naphthyridin-9-ol] | 5000 nM | – |
| COc1cccc2c1[nH]c1nc3cccnc3cc12 [Example 15, 7-methoxy-6H-indolo[2,3-b][1,5]naphthyridine] | – | Cytotoxicity, EC50 (result in words) [1]: No effect |
| Cc1ccc2[nH]c3nc4cccnc4cc3c2c1 [Example 17, 9-methyl-6H-indolo[2,3-b][1,5]naphthyridine] | 900 nM | – |
| CCCCc1c2ncccc2nc2[nH]c3ccc(OC)cc3c12 [Example 18, 11-butyl-9-methoxy-6H-indolo[2,3-b][1,5]naphthyridine] | 1000 nM | – |
| CC(=O)Oc1ccc2c(c1)c1cc3ncccc3nc1n2C(C)=O [Example 19, 6-acetyl-6H-indolo[2,3-b][1,5]naphthyridin-9-yl acetate] | 1000 nM | – |
| Cc1c2ccncc2c(C)c2c1[nH]c1ccccc12 [ellipticine] | – | EC50 at 72 h ([3]; MCF-7 cells, 72 h treatment, 5% FCS, concentrations 0.1, 1, 3, 10 μM, read-out: Cytotoxicity, EC50): 1000 nM |

Reference: patent US10456400B2, “Aza-ellipticine analogs, methods of synthesis and methods of treatment” (MUSC FOUNDATION FOR RESEARCH DEVELOPMENT, priority 2014, dated 2019)
